Consider 25 molecules from patent publication EP1389624A1, “Phosphorous-containing cysteine and serine protease inhibitors” (CEPHALON, INC., priority 1995, dated 1997).

This assay concerns the target T1, Calpain I (Homo sapiens, UniProt P07384).
T1 sequence (P07384 1-714): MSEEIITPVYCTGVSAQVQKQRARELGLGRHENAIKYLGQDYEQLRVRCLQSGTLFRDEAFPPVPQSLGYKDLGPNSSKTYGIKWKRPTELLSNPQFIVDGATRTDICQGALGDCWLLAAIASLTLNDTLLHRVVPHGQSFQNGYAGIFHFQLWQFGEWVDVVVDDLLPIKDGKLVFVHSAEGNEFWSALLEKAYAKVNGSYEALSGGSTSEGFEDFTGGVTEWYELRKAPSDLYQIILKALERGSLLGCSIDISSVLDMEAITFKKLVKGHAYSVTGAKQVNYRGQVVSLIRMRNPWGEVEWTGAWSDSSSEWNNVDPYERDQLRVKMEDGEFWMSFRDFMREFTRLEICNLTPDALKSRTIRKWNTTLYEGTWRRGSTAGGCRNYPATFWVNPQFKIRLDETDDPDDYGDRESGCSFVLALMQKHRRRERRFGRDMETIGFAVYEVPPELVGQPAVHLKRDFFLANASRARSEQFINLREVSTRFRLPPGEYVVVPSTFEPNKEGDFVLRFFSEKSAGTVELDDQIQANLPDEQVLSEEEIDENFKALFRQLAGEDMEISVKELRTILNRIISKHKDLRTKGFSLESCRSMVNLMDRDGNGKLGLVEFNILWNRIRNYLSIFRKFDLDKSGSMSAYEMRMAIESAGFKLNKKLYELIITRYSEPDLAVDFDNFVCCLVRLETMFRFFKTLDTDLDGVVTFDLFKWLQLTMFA
T1 sequence (P04632 1-268 partner): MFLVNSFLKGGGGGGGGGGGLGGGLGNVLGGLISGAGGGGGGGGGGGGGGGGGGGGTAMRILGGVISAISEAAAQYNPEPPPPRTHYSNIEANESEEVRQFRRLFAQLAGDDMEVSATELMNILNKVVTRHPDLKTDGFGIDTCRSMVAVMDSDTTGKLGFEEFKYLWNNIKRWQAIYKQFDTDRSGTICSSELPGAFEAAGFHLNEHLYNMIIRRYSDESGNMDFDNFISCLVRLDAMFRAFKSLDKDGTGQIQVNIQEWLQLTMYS
In words: Inhibition and rate of inactivation of cysteine protease (calpain I) activity, Succ-Leu-Tyr-MNA substrate hydrolysis. The note with it: for kinact/KI: read-out: kobs/I x 10^-3 M^-1s^-1; for inhibition at 0.1 µM: read-out: % Inhib. @ 0.1 uM.

Where [1] appears, read: apparent second order rate constant of inactivation from reaction progress curves under pseudo-first order conditions, mean of three or more determinations.

Counter-ions that a name gives are not always drawn. Like-named read-outs stand apart in the source and are kept apart here. Some results are limits rather than exact numbers.

Method: To evaluate inhibitory activity, stock solutions (40 times concentrated) of each compound to be tested were prepared in 100% anhydrous DMSO and 5 µl of each inhibitor preparation were aliquoted into each of three wells of a 96 well plate. […] To start the reaction, 20 µl of 50 mM CaCl2 in assay buffer was added to all wells of the plate, excepting three, which were used as background signal baseline controls. Substrate hydrolysis was monitored every 5 minutes for a total of 30 minutes. Substrate hydrolysis in the absence of inhibitor was linear for up to 15 minutes.
Inhibition of calpain I activity was calculated as the percent decrease in the rate of substrate hydrolysis in the presence of inhibitor (vi) relative to the rate in its absence (vo). Comparison between vo and vi was made within the linear range for substrate hydrolysis. […] Apparent second order rate constants were determined from analysis of reaction progress curves under pseudo-first order conditions. Each determination represents the mean of three or more independent single cuvette analyses continually monitored via a Perkin-Elmer LS50B spectrofluorimeter.

For the molecule `CC(C)C[C@H](NC(=O)OCc1ccccc1)C(=O)N[C@@H](Cc1ccccc1)C(=O)COP(=O)(OCc1ccccc1)OCc1ccccc1` [Example 34, Dibenzyl (3S)-[3-[(N-Benzyloxycarbonyl-L-leucyl)amino]-2-oxo-4-phenylbutyl] phosphate], the kinact/KI turned out to be 100000 M⁻¹ s⁻¹.

For the molecule `CC(C)C[C@H](NC(=O)OC(C)(C)C)C(=O)N[C@@H](Cc1ccccc1)C(=O)COP(=O)(OCc1ccccc1)OCc1ccccc1` [Example 35, Dibenzyl (3S)-[3-[(N-t-Butoxycarbonyl-L-leucyl)amino]-2-oxo-4-phenylbutyl] phosphate], the inhibition at 0.1 µM amounted to 100% and the kinact/KI was found to be 242000 M⁻¹ s⁻¹.

As to `CC(C)CC(NC(=O)C12OC3COC(C)(C)OC3C1OC(C)(C)O2)C(=O)NC(Cc1ccccc1)C(=O)COP(=O)(OCc1ccccc1)OCc1ccccc1` [Example 37, Dibenzyl (3S)-[3-[(N-diisopropylidine-2-keto-L-gulonyl-L-leucyl)amino)-2-oxo-4-phenylbutyl] phosphate], the “kobs/I x 10^-3 M^-1s^-1” value is 113 x 10^-3 M^-1s^-1.

`CC(C)C[C@H](NC(=O)C12OC(CO)C(O)C1OC(C)(C)O2)C(=O)N[C@@H](Cc1ccccc1)C(=O)COP(=O)(OCc1ccccc1)OCc1ccccc1` (stereo partly drawn) [Example 38, Dibenzyl (3S)-[3-[(N-monoisopropylidine-2-keto-L-gulonyl-L-leucyl)amino]-2-oxo-4-phenylbutyl] phosphate]: the “kobs/I x 10^-3 M^-1s^-1” value under setting [1] was 116 x 10^-3 M^-1s^-1.

Consider `Cc1ccccc1COP(=O)(OCC(=O)[C@H](Cc1ccccc1)NC(=O)[C@H](CC(C)C)NC(=O)OCc1ccccc1)OCc1ccccc1C` [Example 39, Bis(2-methylbenzyl) (3S)-[3-[(N-Benzyloxycarbonyl-L-leucyl)amino]-2-oxo-4-phenylbutyl] phosphate], for which the kinact/KI was determined as 365000 M⁻¹ s⁻¹.

With `CC(C)C[C@H](NC(=O)OCc1ccccc1)C(=O)N[C@@H](Cc1ccccc1)C(=O)COP(=O)(OCc1cccc(Oc2ccccc2)c1)OCc1cccc(Oc2ccccc2)c1` [Example 40, Bis(3-phenoxybenzyl) (3S)-[3-[(N-Benzyloxycarbonyl-L-leucyl)amino]-2-oxo-4-phenylbutyl] phosphate], the inhibition at 0.1 µM worked out at 53%.

For the molecule `CC(C)C[C@H](NC(=O)OC(C)(C)C)C(=O)N[C@@H](Cc1ccccc1)C(=O)COP(=O)(O)O` [Example 41, Dihydrogen (3S)-[3-[(N-t-Butoxycarbonyl-L-leucyl)amino]-2-oxo-4-phenylbutyl] phosphate], the inhibition at 0.1 µM is 7% and the kinact/KI is below 20000 M⁻¹ s⁻¹.

Take `COP(=O)(OC)OCC(=O)[C@H](Cc1ccccc1)NC(=O)[C@H](CC(C)C)NC(=O)OCc1ccccc1` [Example 42, Dimethyl (3S)-[3-[(N-Benzyloxycarbonyl-L-leucyl)amino]-2-oxo-4-phenylbutyl] phosphate]: the kinact/KI worked out at 20000 M⁻¹ s⁻¹.

As for `CCCCOP(=O)(OCCCC)OCC(=O)[C@H](Cc1ccccc1)NC(=O)[C@H](CC(C)C)NC(=O)OCc1ccccc1` [Example 43, Dibutyl (3S)-[3-[(N-Benzyloxycarbonyl-L-leucyl)amino]-2-oxo-4-phenylbutyl] phosphate], the kinact/KI was 40000 M⁻¹ s⁻¹.

Regarding `CCCCC(CC)COP(=O)(OCC(=O)[C@H](Cc1ccccc1)NC(=O)[C@H](CC(C)C)NC(=O)OCc1ccccc1)OCC(CC)CCCC` (stereo partly drawn) [Example 44, Bis(2-ethylhexyl) (3S)-[3-[(N-Benzyloxycarbonyl-L-leucyl)amino]-2-oxo-4-phenylbutyl] phosphate], the kinact/KI turned out to be 1000 M⁻¹ s⁻¹.

For the molecule `CC(C)C[C@H](NC(=O)OC(C)(C)C)C(=O)N[C@@H](Cc1ccccc1)C(=O)COP(=O)(OCCC1CCCCC1)OCCC1CCCCC1` [Example 45, Bis(2-cyclohexylethyl) (3S)-[3-[(N-t-Butoxycarbonyl-L-leucyl)amino]-2-oxo-4-phenylbutyl] phosphate], the inhibition at 0.1 µM came to 28%.

In the case of `CC(C)C[C@H](NC(=O)OCc1ccccc1)C(=O)N[C@@H](Cc1ccccc1)C(=O)COP(=O)(OCCc1ccccc1)OCCc1ccccc1` [Example 46, Diphenethyl (3S)-[3-[(N-Benzyloxycarbonyl-L-leucyl)amino]-2-oxo-4-phenylbutyl] phosphate], the inhibition at 0.1 µM came out at 99% and the kinact/KI worked out at 380000 M⁻¹ s⁻¹.

Take `CC(C)C[C@H](NC(=O)OCc1ccccc1)C(=O)N[C@@H](Cc1ccccc1)C(=O)COP1(=O)OCC(OCc2ccccc2)CO1` (stereo partly shown) [Example 47]: the inhibition at 0.1 µM worked out at 47%.

On to `CC(C)C[C@H](NC(=O)OCc1ccccc1)C(=O)N[C@@H](Cc1ccccc1)C(=O)COP(=O)(OCc1ccccc1)c1ccccc1` (stereo partly drawn) [Example 49, Benzyl (3S)-[3-[(N-Benzyloxycarbonyl-L-leucyl)amino]-2-oxo-4-phenylbutyl]phenylphosphonate], for which the inhibition at 0.1 µM was 90%.

For `CC(C)C[C@H](NC(=O)OCc1ccccc1)C(=O)N[C@@H](Cc1ccccc1)C(=O)COP(=O)(OCCN1CCOCC1)c1ccccc1` (stereo partly drawn) [Example 50, 2-(Morpholin-4-yl)ethyl (3S)-[3-[(N-benzyloxycarbonyl-L-leucyl)amino]-2-oxo-4-phenylbutyl] phenylphosphonate hydrochloride], the kinact/KI stood at 70000 M⁻¹ s⁻¹.

For `CC(C)C[C@H](NC(=O)OCc1ccccc1)C(=O)N[C@@H](Cc1ccccc1)C(=O)COP(=O)(OCCN1CCCC1=O)c1ccccc1` (stereo partly drawn) [Example 51, (3S)-[3-[(N-Benzyloxycarbonyl-L-leucyl)amino]-2-oxo-4-phenylbutyl] 2-(2-oxopyrrolidin-1-yl)ethyl phenylphosphonate], the kinact/KI was found to be 26000 M⁻¹ s⁻¹.

For `CC(C)C[C@H](NC(=O)OCc1ccccc1)C(=O)N[C@@H](Cc1ccccc1)C(=O)COP(C)(C)=O` [Example 52, (3S)-[3-[(N-Benzyloxycarbonyl-L-leucyl)amino]-2-oxo-4-phenylbutyl] dimethylphosphinate], the kinact/KI was 6000 M⁻¹ s⁻¹.

Take `CCCCCP(=O)(CCCCC)OCC(=O)[C@H](Cc1ccccc1)NC(=O)[C@H](CC(C)C)NC(=O)OCc1ccccc1` [Example 53, (3S)-[3-[(N-Benzyloxycarbonyl-L-leucyl)amino]-2-oxo-4-phenylbutyl] dipentylphosphinate]: the inhibition at 0.1 µM came out at 19%.

For the molecule `CC(C)C[C@H](NC(=O)OCc1ccccc1)C(=O)N[C@@H](Cc1ccccc1)C(=O)COP(=O)(CCc1ccccc1)CCc1ccccc1` [Example 54, (3S)-[3-[(N-Benzyloxycarbonyl-L-leucyl)amino]-2-oxo-4-phenylbutyl] bis(2-phenylethyl)phosphinate], the inhibition at 0.1 µM came to 15% and the kinact/KI came out at 8000 M⁻¹ s⁻¹.

For `Cc1ccccc1P(=O)(OCC(=O)[C@H](Cc1ccccc1)NC(=O)[C@H](CC(C)C)NC(=O)OCc1ccccc1)c1ccccc1C` [Example 55, (3S)-[3-[(N-Benzyloxycarbonyl-L-leucyl)amino]-2-oxo-4-phenylbutyl] bis(2-methylphenyl)phosphinate], the kinact/KI was 31000 M⁻¹ s⁻¹.

On to `Cc1ccccc1P(=O)(OCC(=O)[C@H](Cc1ccccc1)NC(=O)[C@H](CC(C)C)NC(=O)OC(C)(C)C)c1ccccc1C` [Example 56, (3S)-[3-[(N-t-Butoxycarbonyl-L-leucyl)amino]-2-oxo-4-phenylbutyl] bis(2-methylphenyl)phosphinate], for which the kinact/KI came out at 22000 M⁻¹ s⁻¹.

As to `COc1ccc(P(=O)(OCC(=O)[C@H](Cc2ccccc2)NC(=O)[C@H](CC(C)C)NC(=O)OCc2ccccc2)c2ccc(OC)cc2)cc1` [Example 57, (3S)-[3-[(N-Benzyloxycarbonyl-L-leucyl)amino]-2-oxo-4-phenylbutyl] bis(4-methoxyphenyl)phosphinate], the inhibition at 0.1 µM came out at 85% and the kinact/KI was found to be 85000 M⁻¹ s⁻¹.

Turning to `COc1ccccc1P(=O)(OCC(=O)[C@H](Cc1ccccc1)NC(=O)[C@H](CC(C)C)NC(=O)OCc1ccccc1)c1ccccc1` (stereo partly drawn) [Example 58, (3S)-[3-[(N-Benzyloxycarbonyl-L-leucyl)amino]-2-oxo-4-phenylbutyl] (2-methoxyphenyl)(phenyl)phosphinate], the kinact/KI came to 150000 M⁻¹ s⁻¹.

For `COc1cccc(P(=O)(OCC(=O)[C@H](Cc2ccccc2)NC(=O)[C@H](CC(C)C)NC(=O)OCc2ccccc2)c2ccccc2)c1` (stereo partly drawn) [Example 59, (3S)-[3-[(N-Benzyloxycarbonyl-L-leucyl)amino]-2-oxo-4-phenylbutyl] (3-methoxylphenyl)(phenyl)phosphinate], the kinact/KI worked out at 163000 M⁻¹ s⁻¹.

Consider `CCP(=O)(OCC(=O)[C@H](Cc1ccccc1)NC(=O)[C@H](CC(C)C)NC(=O)OCc1ccccc1)c1ccccc1` (stereo partly drawn) [Example 60, (3S)-[3-[(N-Benzyloxycarbonyl-L-leucyl)amino]-2-oxo-4-phenylbutyl] (ethyl) (phenyl)phosphinate], for which the inhibition at 0.1 µM was found to be 51%. Also, under setting [1], the “kobs/I x 10^-3 M^-1s^-1” value is given as 6 x 10^-3 M^-1s^-1.
